Values joined by “and” are separate entries in the source; they are usually repeats but may differ in a detail not shown here. Equal values may be shown once.
Experiments:
[1] = system: SCC9-LC3-GFP cells; experiment: Autophagy assay (LC3-GFP puncta); assay type: cell-based, human; settings: 4e 2 × IC50, 48 h; CPP 20% (v/v) 4–6 h
Description: Autophagy assay. To determine if compound 4e induces autophagy, SCC9 cells were stably transduced with LC3-GFP expressing plasmid. For the generation of SCC9 cell lines harboring LC3-GFP, HEK293FT cells were transfected with 3 µg of each helper plasmids (pMDLglpRRE, pHCMV g, and pRSVrev) and 8 µg of the pLV-CMV-SV40-Puro-GFP-LC3 using calcium phosphate and 25 µM chloroquine. Twenty-four hours later, a lentivirus-containing medium was harvested, supplemented with 8 µg/mL of Polybrene, and used to transduce SCC9 cells. Twenty-four hours later, the transduced cells were selected with 5 µg/mL of Puromycin for 7 days. The cells were then cultured with 2.5 µg/mL Puromycin for further experiments. The lentiviral construct encoding pLV-CMV-SV40-Puro-GFP-LC3 was a gift from Dr. SilvyaStuchi Maria Engler. […] As a positive control, calcium phosphate precipitates (CPP) were prepared by adding CaCl2 dropwise to Na2HPO4 (in Hepes, pH 7.05) as previously described. CPP 20% (v/v) was administrated to the cells 4–6 h before analysis.

[2] = system: OSCC cells (SCC-4, SCC-9, SCC-25); experiment: MTT cytotoxicity and selectivity, mean over OSCC cell lines; assay type: cell-based, human
Description: (§1) Cell viability assay (cytotoxicity) and compound stability assay. The viability of SCC cell lines and primary human fibroblast cells was evaluated using the MTT assay as in [48]. Briefly, the cells were grown in triplicates in 96-well plates (5 × 10^3 cells/well) until confluence. Then, the medium was removed, fresh medium was added, and the cells were returned to the incubator in the presence of different compounds. DMSO at the same concentrations was used as a 100% cell viability control. After 48 h, the cells were incubated with 5 mg/mL MTT reagent (3-(4,5-dimethyl-2-thiazolyl)-2,5-diphenyl-2-H-tetrazolium bromide) (Sigma-Aldrich Co., St. Louis, MO, USA) for 3.5 h. After that, formazan crystals were dissolved in MTT solvent solution (DMSO/methanol 1:1 v/v) and the absorbance at 560 nm was evaluated using an EPOCH microplate spectrophotometer (BioTek Instruments, Winooski, VT, USA) with the background absorbance at 670 nm subtracted.
Statistical analysis, IC50 calculation. The data are presented as means ±\SD. IC50 values for the MTT assays were obtained by nonlinear regression using the […] […] The selectivity index was calculated as SI = IC50 of the compound in normal oral fibroblast cells/IC50 of the same compound for each oral cancer cell line (SCC-4, SCC-9, and SCC-25) and the mean was calculated when indicated.

[3] = system: Primary normal human gingival fibroblasts; experiment: MTT cell viability assay, normal fibroblasts; assay type: cell-based; settings: Homo sapiens, Fibroblast; primary gingival fibroblasts, 48 h, MTT; read-out: Primary Gingival Fibroblast IC50
Description: (§2) Cells and reagents. Human SCC-4, SCC-9, and SCC-25 cells, derived from a human oral tongue SCC (squamous cell carcinoma) were obtained from the ATCC (CRL-1624, CRL-1629, and CRL-1628, respectively) and maintained in 1:1 DMEM/F12 (Dulbecco’s modified Eagle medium and Ham’s F12 medium; Gibco (Thermo Fisher, Waltham, MA, USA)) supplemented with 10% (v/v) FBS (fetal bovine serum; Invitrogen, Thermo Fisher, Waltham, MA, USA) and 400 ng/mL hydrocortisone (Sigma-Aldrich Co., St. Louis, MO, USA). Primary normal human gingival fibroblasts were obtained from the ATCC (PCS-201-018) and maintained in DMEM supplemented with 10% (v/v) FBS and were used in a maximum of six passages. The cells were grown in a humidified environment containing 5% CO2 at 37 °C. […] Carboplatin stock was prepared in water (Fauldcarbo®; LibbsFarmacêutica, São Paulo, SP, Brazil) and was used as a standard anticancer compound.
as §1
(§3) Statistical analysis, IC50 calculation. The data are presented as means ±\SD. IC50 values for the MTT assays were obtained by nonlinear regression using the […] 5.0 program (Intuitive Software for Science, San Diego, CA, USA) from at least three independent experiments. A dose–response (inhibitor) vs. response curve using the least squares method was used to determine the IC50, SD, and R^2 of the data. The selectivity index was calculated as SI = IC50 of the compound in normal oral fibroblast cells/IC50 of the same compound for each oral cancer cell line (SCC-4, SCC-9, and SCC-25) and the mean was calculated when indicated.

[4] = MTT cell viability assay, normal fibroblasts; assay type: cell-based, human; settings: human, primary normal human gingival fibroblasts (ATCC PCS-201-018)
Description: as §2, §1, §3

[5] = system: SCC9 cells; experiment: Time-lapse video microscopy; assay type: cell-based, human; settings: SCC9, 2 × IC50, 72 h time-lapse
Description: Video microscopy. […] For 72 h, phase-contrast images of the same field were captured every minute using a Hamamatsu C2400 CCD camera (Hamamatsu, Japan). The images of each experimental condition were integrated into videos using ImageJ software (National Institute of Health, Bethesda, MD, USA), and different times (indicated) were selected according to the morphological change observed during the treatment.

[6] = system: C57BL/6 female mice; experiment: In vivo acute toxicity study; settings: 14 days
Description: In vivo acute toxicity study. The acute toxicity study for compound 4e was performed in twelve-week-old C57BL/6 female mice via intraperitoneal injection and was approved by the University Animal Ethics Board under registration number 982. All experiments were performed in accordance with Brazilian guidelines and regulations. Dosing and analysis were performed according to 423 OECD guidelines and reviewed by. Each animal group had n = 3 or 4 (as indicated) and received only one intraperitoneal injection (Day 0) of compound 4e dissolved in […] PBS and 3% DMSO. The control group animals received only 3% DMSO in PBS. The first dose of the compound was 100 mg/kg. Subsequent dose levels (200 mg/kg and 400 mg/kg) were determined based on the result obtained from the previous dosing. The animals were examined every day, twice a day, for mortality and morbidity for 14 days, when all animals were anesthetized (ketamine 100 mg/kg and xylazine 10 mg/kg) followed by cervical dislocation. Gross necropsy and histology of the main organs were performed. The animals’ body weights and average food consumption were measured every 7 days. As an indication of morbidity, the following signs were assessed: tremors; convulsion; salivation; diarrhea; lethargy; coma; pain signs; increased rear arching; and mobility impairment. The necropsy included an examination of the external characteristics of the carcass; external body orifices; the abdominal, thoracic, and cranial cavities; organs/tissues of the liver, thymus, right kidney, […], heart, and lung. Major organs were analyzed by histopathology. For more details, see Supplementary Methods.

For `CC1(C)CC(=O)C2=C(C1)NC1=C(C(=O)c3ccccc3C1=O)C2c1ccc(Cl)cc1Cl` (stereo not drawn) [4e, 12-(2,4-dichlorophenyl)-3,3-dimethyl-3,4-dihydrobenzo[b]acridine-1,6,11(2H,5H,12H)-trione], the “LC3-GFP puncta formation (autophagy)” value [1] was “neither DMSO nor 4e were able to induce this cell death process”, the IC50 ([2]; Homo sapiens, mean of SCC4, SCC9, SCC25) was 30 µM and the “SI (mean selectivity index)” value ([2]; mean over OSCC cell lines vs normal fibroblasts) was 2.9 and 2.93. For the same compound, the IC50 [3] was 88 µM, the viability at 48 h [4] was > 75% and the cell morphology [5] was “formation of membrane blebs at early times, between 16 and 48 h, followed by cells shrinkage”. For the same compound, the “Change in Body Weight” value ([6]; 100 mg/kg single i.p. dose) was “Absent”, the “Change in Food Consumption” value ([6]; 100 mg/kg single i.p. dose) was “Absent” and the “Gross Necropsy” value ([6]; 100 mg/kg single i.p. dose) was “No alteration”. The Histology ([6]; 100 mg/kg single i.p. dose) was “No significant alteration in comparison to control”, the Morbidity ([6]; 100 mg/kg single i.p. dose) was “Absent” and the “Change in Body Weight” value ([6]; 200 mg/kg single i.p. dose) was “Absent”. For the same compound, the “Change in Food Consumption” value ([6]; 200 mg/kg single i.p. dose) was “Absent”, the “Gross Necropsy” value ([6]; 200 mg/kg single i.p. dose) was “No alteration” and the Histology ([6]; 200 mg/kg single i.p. dose) was “Presence of mild Perivascular and periportal lymphocyte focus and Bronchus-Associated Lymphoid Tissue (BALT)”. The Morbidity ([6]; 200 mg/kg single i.p. dose) was “Absent”, the “Change in Body Weight” value ([6]; 400 mg/kg single i.p. dose) was “Absent” and the “Change in Food Consumption” value ([6]; 400 mg/kg single i.p. dose) was “Absent”. For the same compound, the “Gross Necropsy” value ([6]; 400 mg/kg single i.p. dose) was “No alteration”, the Histology ([6]; 400 mg/kg single i.p. dose) was “Presence of mild Perivascular and periportal lymphocyte focus and Bronchus-Associated Lymphoid Tissue (BALT)” and the Morbidity ([6]; 400 mg/kg single i.p. dose) was “Absent”.

— publication PMC9415509, “Pro-Apoptotic Antitumoral Effect of Novel Acridine-Core Naphthoquinone Compounds against Oral Squamous Cell Carcinoma” (Molecules, 2022)
